From patent US20260015341A1, “PI3K INHIBITOR, PREPARATION METHOD THEREFOR, AND USE THEREOF” (HINOVA PHARMACEUTICALS INC., priority 2022, published 2026)

How the values were obtained:
T47D cells = assay: Inhibitory effects on the proliferation of T47D cells (CellTiter-Glo); assay type: cell-based; details: 7 days
Protocol: Experimental Example 3: Experiment of Inhibitory Effects on the Proliferation of T47D Cells
T47D cells (ATCC. #HTB-133) were diluted with RPMI 1640 (Gibco #22400-089) containing 10% FBS (Hyclone #SH30084.03), seeded in 96-well plate (Biosharp #BS-MP-96W) at 1000 cells/well, and then cultured for 24 h. Then, gradiently diluted compounds were added (starting at a final concentration of 10 μM, 3-fold dilution, 9 dose concentrations), and the final volume was adjusted to 150 μL/well. The plate was incubated at 37° C. under […] for 7 days. After the cultivation was completed, CellTiter-Glo reagent (Promega #G7573) was added at 75 μL/well, and then the plate was further incubated at 25° C. for 10 min. After that, the chemiluminescence value was read using an instrument.
The results are shown in the T47D IC50 column in Table 2.

[1] = target: PI3Kα[WT]/[E542K]/[E545K]/[H1047R]/PI3Kβ/γ/δ; assay: PI3K enzyme activity assay (ADP-Glo); assay type: biochemical; details: PI3K kinase reaction, isoform not given
Protocol: Experimental Example 1: PI3Kα[WT]/[E542K]/[E545K]/[H1047R]/PI3Kβ/γ/δ Enzyme Activity Assay
PI3Kα[WT], PI3Kα[E542K], PI3Kα[E545K], PI3Kα[H1047R], PI3Kβ, PI3Kγ and PI3Kδ kinase reaction was performed in 384-well plate (PerkinElmer, #6008280), with a reaction system of 4 μL. PI3Kα[WT] enzyme solution (Promega, #V1721) or PI3Kα[E542K] enzyme solution (CarnaBio, #11-413-20N) or PI3Kα[E545K] enzyme solution (CarnaBio, #11-414-20N) or PI3Kα[H1047R] enzyme solution (Promega, #V1741) or PI3Kβ enzyme solution (Promega, #V1751) or PI3Kγ enzyme solution (ThermoFisher, #PV4786) or PI3Kδ enzyme solution (ThermoFisher, #PV6451) were added to 384-well plate, and then gradiently diluted compounds were added (starting at a final concentration of 10 μM, 3-fold dilution, 10 doses), followed by adding PIP2: 3PS (Promega, #V1701) and ATP solution (Promega, #V915B) to the plate. After incubation at 25° C. for 1 h, ADP-Glo reagent buffer (Promega, #V9102) was added to each well. The plate was sealed and incubated at 25° C. for 40 min, and then 10 μL of ADP-Glo detection buffer (Promega, #V9102) was added to each well. After incubating at 25° C. for 40 min, the chemiluminescence value was read using an instrument.
The experimental results are shown in the ADP Glo IC50 column in Table 2.

MCF-10A cells = assay: Inhibitory effects on the proliferation of MCF-10A cells (CCK8); assay type: cell-based; details: 6 days
Protocol: Experimental Example 2: Experiment of Inhibitory Effects on the Proliferation of MCF-10A Cells
MCF-10A cells (Cobioer Bio. #CBP60419MCF) were diluted with complete medium (Cobioer Bio. #CBP60419), seeded in 96-well plate (Corning #3599) at 500 cells/well, and then cultured for 24 h. Then, gradiently diluted compounds were added (starting at a final concentration of 10 μM, 3-fold dilution, 9 dose concentrations), and the final volume was adjusted to 100 μL/well. The plate was incubated at 37° C. under 5% CO2 for 6 days. After the cultivation was completed, CCK8 reagent (Signalway Antibody Bio. #CP002) was added at 10 μL/well, and then the plate was further incubated at 37° C. under 5% CO2 for 2-3 hours. The OD450 nm value was obtained by a microplate reader.
The results are shown in the MCF-OA IC50 column in Table 2.

Row | Structure (SMILES) | IC50 (T47D cells; Homo sapiens, 168 h) | IC50 [1] | IC50 (MCF-10A cells; Homo sapiens, 144 h) | IC50 (T47D cells) | IC50 (MCF-10A cells)
1 | Cc1cc([C@@H](C)Nc2ccc(Cl)nc2C(=O)O)c2oc(-c3ccc4c(c3)OC(F)(F)O4)cc(=O)c2c1 [Compound 46] | < 1000 nM | < 1000 nM | > 5000 nM |  | 
2 | Cc1cc([C@@H](C)Nc2ccccc2C(=O)O)c2[nH]c(-c3ccc(F)cn3)[n+](C)c(=O)c2c1 [Compound 69] |  | < 1000 nM |  | < 1000 nM | > 5000 nM
3 | Cc1cc([C@@H](C)Nc2ccccc2C(=O)O)c2nc(-c3ccc(F)cc3F)n(C)c(=O)c2c1 [Compound 45] | < 1000 nM | < 1000 nM | > 5000 nM |  | 
4 | Cc1cc([C@@H](C)Nc2ccc[nH]c2=O)c2oc(-c3ccc(F)cc3F)cc(=O)c2c1 [Compound 62] | 1000 to 5000 nM | < 1000 nM | > 5000 nM |  | 
5 | Cc1cc([C@@H](C)Nc2cccc(F)c2C(=O)O)c2nc(-c3ccc(F)cc3)n(C)c(=O)c2c1 [Compound 72] | 1000 to 5000 nM | < 1000 nM | > 5000 nM |  | 
6 | Cc1cc([C@@H](C)NC2CCC(=O)NC2=O)c2oc(-c3ccc(F)cc3F)cc(=O)c2c1 (some centres unmarked) [Compound 117] | > 5000 nM | > 5000 nM | > 5000 nM |  | 
7 | COC(=O)c1nc(Cl)ccc1N[C@H](C)c1cc(C)cc2c(=O)n(C)c(-c3ccncc3)nc12 [Compound 103] | < 1000 nM | < 1000 nM | > 5000 nM |  | 
8 | C[C@@H](Nc1cccc(F)c1C(=O)O)c1cc(F)cc2c(=O)n(C)c(-c3ccc(F)cn3)nc12 [Compound 73] | 1000 to 5000 nM | < 1000 nM | > 5000 nM |  | 
9 | C[C@@H](Nc1ccc(Cl)nc1C(=O)O)c1cc(F)cc2c(=O)n(C)c(-c3ncc(Cl)cn3)nc12 [Compound 99] | < 1000 nM | < 1000 nM | > 5000 nM |  | 
10 | Cc1cc([C@@H](C)Nc2ccccc2C(=O)O)c2nc(-c3ccc(F)cc3F)cc(=O)n2c1 [Compound 41, (R)-2-((1-(2-(2,4-difluorophenyl)-7-methyl-4-oxo-4H-pyrido[1,2-a]pyrimidin-9-yl)ethyl)amino)benzoic Acid] | 1000 to 5000 nM | < 1000 nM | > 5000 nM |  | 
11 | C[C@@H](Nc1ccc(Cl)cc1C(=O)O)c1cc(F)cc2c(=O)n(C)c(-c3ccc(F)cn3)nc12 [Compound 80] | < 1000 nM | < 1000 nM | > 5000 nM |  | 
12 | Cc1cc([C@@H](C)Nc2ccccc2C(=O)O)c2nc(-c3ccc(F)cc3)n(C)c(=O)c2c1 [Compound 61] | < 1000 nM | < 1000 nM | > 5000 nM |  | 
13 | Cc1cc([C@@H](C)Nc2ccccc2C(=O)O)c2nc(-c3c(F)cccc3F)n(C)c(=O)c2c1 [Compound 37, (R)-2-((1-(2-(2,6-difluorophenyl)-3,6-dimethyl-4-oxo-3,4-dihydroquinazolin-8-yl)ethyl)amino)benzoic Acid] |  | < 1000 nM |  |  | 
14 | Cc1cc([C@@H](C)Nc2ccnn2C)c2oc(-c3ccc(F)cc3F)cc(=O)c2c1 [Compound 42] |  | 1000 to 5000 nM |  |  | 
15 | Cc1cc([C@@H](C)Nc2ccc(Cl)nc2C(=O)O)c2nc(-c3cc(F)ccc3F)n(C)c(=O)c2c1 [Compound 60] | < 1000 nM | < 1000 nM | > 5000 nM |  | 
16 | Cc1cc([C@@H](C)Nc2cccc(F)c2C(=O)O)c2nc(-c3ccc(F)cn3)n(C)c(=O)c2c1 [Compound 70] | 1000 to 5000 nM | < 1000 nM | > 5000 nM |  | 

Row | Structure (SMILES) | IC50 (T47D cells; Homo sapiens, 168 h) | IC50 [1] | IC50 (MCF-10A cells; Homo sapiens, 144 h) | IC50 (T47D cells) | IC50 (MCF-10A cells)
17 | Cc1cc([C@@H](C)Nc2ccccc2C(=O)O)c2nc(-c3cc(F)ccc3F)n(C)c(=O)c2c1 [Compound 59] | < 1000 nM | < 1000 nM | > 5000 nM |  | 
18 | Cc1cc([C@@H](C)Nc2ccccc2S(N)(=O)=O)c2oc(-c3ccc(F)cc3F)cc(=O)c2c1 [Compound 27, (R)-2-((1-(2-(2,4-difluorophenyl)-6-methyl-4-oxo-4H-chromen-8-yl)ethyl)amino)benzenesulfonamide] | > 5000 nM | > 5000 nM | > 5000 nM |  | 
19 | Cc1cc([C@@H](C)Nc2ccccc2C(O)C(F)(F)F)c2oc(-c3ccc(F)cc3F)cc(=O)c2c1 (stereo partly drawn) [Compound 57, 2-(2,4-difluorophenyl)-6-methyl-8-((1R)-1-((2-(2,2,2-trifluoro-1-hydroxyethyl)phenyl)amino)ethyl)-4H-chromen-4-one] | > 5000 nM | < 1000 nM | > 5000 nM |  | 
20 | Cc1cc([C@@H](C)Nc2ccsc2C(=O)O)c2nc(-c3ccc(F)cn3)n(C)c(=O)c2c1 [Compound 82] | > 5000 nM | < 1000 nM | > 5000 nM |  | 
21 | Cc1cc([C@@H](C)Nc2ccccc2C(=O)O)c2oc(-c3ccc4c(c3)OC(F)(F)O4)cc(=O)c2c1 [Compound 43] | < 1000 nM | < 1000 nM | > 5000 nM |  | 
22 | Cc1cc([C@@H](C)Nc2ccc(Cl)nc2C(=O)O)c2nc(-c3ccc(F)cc3F)n(C)c(=O)c2c1 [Compound 44] | < 1000 nM | < 1000 nM | > 5000 nM |  | 
23 | Cc1cc([C@@H](C)Nc2ccc(Cl)nc2C(=O)O)c2nc(-c3ncc(Cl)cn3)n(C)c(=O)c2c1 [Compound 96] |  | < 1000 nM |  |  | 
24 | C[C@@H](Nc1ccc(Cl)nc1C(=O)O)c1cc(F)cc2c(=O)n(C)c(-c3ncccn3)nc12 [Compound 100] | < 1000 nM | < 1000 nM | > 5000 nM |  | 
25 | Cc1cc([C@@H](C)Nc2ccccc2C(=O)O)c2nc(N3CCC(C)(C)CC3)n(C)c(=O)c2c1 [Compound 6, (R)-2-((1-(2-(4,4-dimethylpiperidin-1-yl)-3,6-dimethyl-4-oxo-3,4-dihydroquinazolin-8-yl)ethyl)amino)benzoic Acid] | < 1000 nM | < 1000 nM |  |  | 
26 | Cc1cc([C@@H](C)Nc2cccc3c2C(=O)NC3=O)c2oc(-c3ccc(F)cc3F)cc(=O)c2c1 [Compound 55] | > 5000 nM | 1000 to 5000 nM | > 5000 nM |  | 
27 | Cc1cc([C@@H](C)Nc2cccc(F)c2C(=O)O)c2nc(-c3ccc(C(F)(F)F)cn3)n(C)c(=O)c2c1 [Compound 71] | > 5000 nM | 1000 to 5000 nM | > 5000 nM |  | 
28 | C[C@@H](Nc1ccc(F)cc1C(=O)O)c1cc(F)cc2c(=O)n(C)c(-c3ccc(F)cn3)nc12 [Compound 77] | < 1000 nM | < 1000 nM | > 5000 nM |  | 
29 | [2H]C([2H])([2H])NC(=O)c1ncccc1N[C@H](C)c1cc(C)cc2c(=O)cc(-c3ccc(F)cc3F)oc12 [Compound 48, (R)-3-((1-(2-(2,4-difluorophenyl)-6-methyl-4-oxo-4H-chromen-8-yl)ethyl)amino)-N-(methyl-d3)picolinamide] | 1000 to 5000 nM | 1000 to 5000 nM | > 5000 nM |  | 
30 | Cc1cc([C@@H](C)Nc2ccccc2NS(C)(=O)=O)c2oc(-c3ccc(F)cc3F)cc(=O)c2c1 [Compound 28] | < 1000 nM | 1000 to 5000 nM | > 5000 nM |  | 
31 | Cc1cc([C@@H](C)Nc2ccc(Cl)nc2C(=O)O)c2nc(-c3c(C)nn(C)c3C)n(C)c(=O)c2c1 [Compound 53] | < 1000 nM | < 1000 nM | 1000 to 5000 nM |  | 
32 | Cc1cc([C@@H](C)Nc2ccccc2C(=O)O)c2oc(C3CCC(F)(F)CC3)cc(=O)c2c1 [Compound 58, (R)-2-((1-(2-(4,4-difluorocyclohexyl)-6-methyl-4-oxo-4H-chromen-8-yl)ethyl)amino)benzoic Acid] | < 1000 nM | < 1000 nM | > 5000 nM |  | 
